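Results reflect a 48-hour exposure of cells in 96-well plates to compound at five concentrations. At the TGI there is no net growth.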
Assays:
Test in all cases: NCI tumour cell line growth inhibition, 48 h
[1] = tested on: IGROV1 ovarian
[2] = tested on: MOLT-4 leukemia
[3] = tested on: SR leukemia
[4] = tested on: T-47D breast
[5] = tested on: OVCAR-3 ovarian
[6] = tested on: MDA-N
[7] = tested on: SN12C renal
[8] = tested on: 786-0 renal
[9] = tested on: HCT-15 colon
[10] = tested on: SNB-75 CNS
[11] = tested on: ACHN renal
[12] = tested on: LOX IMVI melanoma
[13] = tested on: HOP-62 NSCLC
[14] = tested on: SF-539 CNS
[15] = tested on: SW-620 colon
[16] = tested on: MCF7 breast
[17] = tested on: TK-10 renal
[18] = tested on: HT29 colon
[19] = tested on: CCRF-CEM leukemia
[20] = tested on: SK-OV-3 ovarian
[21] = tested on: HCT-116 colon
[22] = tested on: BT-549 breast
[23] = tested on: HOP-92 NSCLC
[24] = tested on: UACC-62 melanoma
[25] = tested on: SF-295 CNS
[26] = tested on: SNB-19 CNS
[27] = tested on: UACC-257 melanoma
[28] = tested on: SK-MEL-5 melanoma
[29] = tested on: U251 CNS
[30] = tested on: NCI-H460 lung
[31] = tested on: OVCAR-4 ovarian
[32] = tested on: NCI/ADR-RES ovarian
[33] = tested on: HCC-2998 colon
[34] = tested on: CAKI-1 renal
[35] = tested on: A498 renal
[36] = tested on: HS 578T breast
[37] = tested on: KM12 colon
[38] = tested on: MDA-MB-231 breast
[39] = tested on: SK-MEL-2 melanoma
[40] = tested on: M14 melanoma
[41] = tested on: MDA-MB-435
[42] = tested on: SK-MEL-28 melanoma
[43] = tested on: EKVX NSCLC
[44] = tested on: A549 NSCLC
[45] = tested on: COLO 205 colon
[46] = tested on: DU-145 prostate
[47] = tested on: OVCAR-8 ovarian
[48] = tested on: HL-60(TB) leukemia
[49] = tested on: UO-31 renal
[50] = tested on: K-562 leukemia
[51] = tested on: OVCAR-5 ovarian
[52] = tested on: SF-268 CNS
[53] = tested on: RPMI-8226 leukemia
[54] = tested on: PC-3 prostate
[55] = tested on: MALME-3M melanoma
[56] = tested on: NCI-H522 lung
[57] = tested on: NCI-H23 lung

COc1ccc(OC)c2sc(N3C(=O)/C(=C/c4ccc(SC)cc4)N=C3c3ccccc3)nc12
TGI [1]: > 100 µM
TGI [2]: 80.5 µM
TGI [3]: 60.6 µM
TGI [4]: 87 µM
TGI [5]: 53.6 µM
TGI [6]: 42.5 µM
TGI [7]: 70.2 µM
TGI [8]: > 100 µM
TGI [9]: > 100 µM
TGI [10]: 43.6 µM
TGI [11]: 86.6 µM
TGI [12]: 64.4 µM
TGI [13]: 40 µM
TGI [14]: 58.7 µM
TGI [15]: > 100 µM
TGI [16]: 48.1 µM
TGI [17]: > 100 µM
TGI [18]: 53.3 µM
TGI [19]: 22.2 µM
TGI [20]: > 100 µM
TGI [21]: 41.3 µM
TGI [22]: 88 µM
TGI [23]: > 100 µM
TGI [24]: > 100 µM
TGI [25]: > 100 µM
TGI [26]: 68.5 µM
TGI [27]: > 100 µM
TGI [28]: 33.8 µM
TGI [29]: 32.3 µM
TGI [30]: > 100 µM
TGI [31]: 87.6 µM
TGI [32]: 89.9 µM
TGI [33]: > 100 µM
TGI [34]: > 100 µM
TGI [35]: > 100 µM
TGI [36]: 60.8 µM
TGI [37]: 52.5 µM
TGI [38]: > 100 µM
TGI [39]: 42.7 µM
TGI [40]: 46.1 µM
TGI [41]: 37.6 µM
TGI [42]: > 100 µM
TGI [43]: > 100 µM
TGI [44]: 53.9 µM
TGI [45]: > 100 µM
TGI [46]: > 100 µM
TGI [47]: 92.6 µM
TGI [48]: 64.9 µM
TGI [49]: 63.7 µM
TGI [50]: > 100 µM
TGI [51]: > 100 µM
TGI [52]: 88.1 µM
TGI [53]: 63.3 µM
TGI [54]: 50.6 µM

COC1CC(=O)C2C(=O)N(c3ccccc3)C(=O)C23C(C(=O)c2ccccc2)=C(C)NC13O (stereo unspecified)
TGI [1]: 27.5 µM
TGI [55]: 9.96 µM
TGI [4]: 14.1 µM
TGI [5]: 8.12 µM
TGI [6]: 72.2 µM
TGI [7]: 37.1 µM
TGI [8]: 5.38 µM
TGI [9]: 23.4 µM
TGI [11]: 37.5 µM
TGI [12]: 28.9 µM
TGI [13]: 41.9 µM
TGI [14]: 21.8 µM
TGI [15]: 23 µM
TGI [16]: 16.7 µM
TGI [17]: 20.2 µM
TGI [18]: 34.2 µM
TGI [19]: 28.9 µM
TGI [20]: 54 µM
TGI [21]: 22.6 µM
TGI [22]: > 100 µM
TGI [23]: 25.2 µM
TGI [24]: 31.3 µM
TGI [25]: > 100 µM
TGI [26]: 51.1 µM
TGI [27]: 56.2 µM
TGI [28]: 37.4 µM
TGI [29]: 35.5 µM
TGI [30]: 45.4 µM
TGI [31]: 16.6 µM
TGI [32]: 50.9 µM
TGI [34]: 22.1 µM
TGI [35]: 47.7 µM
TGI [36]: 57.7 µM
TGI [37]: 35.6 µM
TGI [38]: 40 µM
TGI [39]: 33.6 µM
TGI [40]: 35.5 µM
TGI [56]: 6.3 µM
TGI [41]: 40.9 µM
TGI [42]: 23.6 µM
TGI [43]: 59.9 µM
TGI [44]: > 100 µM
TGI [45]: 25.1 µM
TGI [46]: 27.8 µM
TGI [47]: > 100 µM
TGI [57]: 46.3 µM
TGI [49]: 40.9 µM
TGI [50]: 0.21 µM
TGI [51]: 54.5 µM
TGI [52]: 22.6 µM
TGI [53]: 21.3 µM
TGI [54]: 34.5 µM
